Measured values from patent US20220127267A1, “THIENO[3,2-B] PYRROLE[3,2-D]PYRIDAZINONE DERIVATIVES AND THEIR USE AS PKM2 DERIVATIVES FOR THE TREATMENT OF CANCER, OBESITY AND DIABETES RELATED DISORDERS” (Agios Pharmaceuticals, Inc., priority 2019, published 2022).

Columns and labels:
PKR WT = PKR WT (Homo sapiens, UniProt P30613); assay: PKR enzyme assay (WT), LDH-coupled, absorbance 340 nm; assay type: biochemical; conditions: wild type PKR enzyme activation
Method: (§1) PKR (WT or mutant) enzyme stock solution was diluted to prepare a 1.25× Reaction Mix (without ADP). 1 μL of test compound was first added to the wells followed by 40 μL of 1.25× Reaction Mix (without ADP) and incubated at room temperature (25° C.) for 60 min. The reaction was initiated with 10 μL ADP, bringing the final Reaction Mix to 1x, and the reaction progress was measured as changes in absorbance at 340 nm wavelength at room temperature.
(§2) Test compound preparation: Test compounds were prepared at 50× final concentration in DMSO. 1 to 3 dilutions were made for 11 points (for example 50 μL of 5000 μM compound was added to 100 μL 100% DMSO to yield a 1667 μM, 50 μL of this added to 100 μL DMSO to yield 556 μM, and so forth). The compounds were added to the assay as a 1 to 50 dilution (1 μL in 50 μL) to yield a top concentration of 100 μM, decreasing 3-fold for 11 points.
(§3) Reaction Mix: PKR (1.25-1000 ng/well, 0.025-20 μg/ml depending on the PKR mutant), ADP (0.05-2.3 mM depending on the PKR mutant), PEP (0.031-2 mM depending on the PKR mutant), NADH (180 μM), LDH (0.005 U/μL, Sigma #L3888), 1 mM DTT, 0.03% BSA in 1× Reaction Buffer
(§4) Reaction Buffer: 100 mM KCl, 50 mM Tris pH 7.5, 5 mM MgCl2.

PKR K410E = PKR K410E (Homo sapiens, UniProt P30613, K410E); assay: PKR Mutant Assay (K410E), LDH-coupled, absorbance 340 nm; assay type: biochemical; conditions: mutant PKR K410E enzyme activation
Method: as §1, §2, §3, §4

PK R510Q = PK R510Q (Homo sapiens, UniProt P30613, R510Q); assay: PKR Mutant Assay (R510Q), LDH-coupled, absorbance 340 nm; assay type: biochemical; conditions: mutant PKR R510Q enzyme activation
Method: as §1, §2, §3, §4

RBCs = assay: Cell Based ATP Assay in purified red blood cells (Cell-Titer-Glo); design: species or system human; conditions: wild type PKR, ATP levels in RBCs, overnight at 37° C.
Method: Fresh blood drawn from healthy volunteers into K2EDTA tubes was collected. Whole blood was pelleted by spinning at 500 g for 10 minutes. The transfusion bag port was cut off Purecell leukocyte reduction neofilter (Fisher NC0267633) one (1) inch above filter. A 10 ml syringe barrel was attached to the remaining cut tubing attached to the neofilter. The plasma layer was removed from the pellet of the whole blood and the pellet was resuspended in 2× volume of phosphate buffered saline (PBS). 9 ml re-suspended blood cell pellet was transferred to a 10 ml syringe that was attached to the neofilter. The whole blood was allowed to gravity flow through filter until all fluid ran through upper tubing into a filter disc. The plunger was added to the syringe. The filter was inverted and air was plunged through the syringe filter system. A new 5 ml syringe was used to remove filtered RBCs from the bag by the syringe port. Purified RBCs were transferred to a 5 ml snap cap tube that had been incubated on ice. The 5 ml snap cap tube was spun at 500 g for 10 minutes at 15 C. Supernatant was aspirated and resuspended in AGAM (1×PBS, 1% glucose, 170 mg/L adenine, 5.25 g/L mannitol) at a density of 4×10^9 cells/mL.
For cell based ATP assays, the compound as described herein was prepared in 100% DMSO as a 10 mM stock. Serial dilutions (1:4) were performed in 96-well V-bottom storage plate and then added 1:100 to 96-well V-bottom plates containing AGAM. 10 μL/well of compound diluted in AGAM was added to black clear bottom assay plates. RBCs were diluted in AGAM media to a density of 1×10^7 cells/mL before added 90 μL/well to black clear bottom assay plates (final compound concentration at 0.1% DMSO concentration). Assay plates were sealed using aluminum foil seals and incubated overnight at 37° C. in a humidified chamber. ATP levels were read out using Cell-Titer-Glo (Promega).

PKM2 WT = PKM2 WT (Homo sapiens, UniProt P14618); assay: PKM2 Assay, LDH-coupled, absorbance 340 nm; assay type: biochemical; conditions: wild type PKM2 enzyme activation
Method: as §1, with “PKM2” for “PKR (WT or mutant)”, “ADP (0.4 mM final concentration),” for “ADP,”
as §2
Reaction Mix: PKM2 (5 ng/well, 0.1 μg/ml), ADP (0.4 mM), PEP (0.11 mM), NADH (180 μM), LDH (0.005 U/μL, Sigma #L3888), 1 mM DTT, 0.03% BSA in 1×
as §4

PKM2 = PKM2 (Mus musculus, UniProt P52480); conditions: in vivo; cited from earlier work
Chain of PKM2 (P52480 whole entry): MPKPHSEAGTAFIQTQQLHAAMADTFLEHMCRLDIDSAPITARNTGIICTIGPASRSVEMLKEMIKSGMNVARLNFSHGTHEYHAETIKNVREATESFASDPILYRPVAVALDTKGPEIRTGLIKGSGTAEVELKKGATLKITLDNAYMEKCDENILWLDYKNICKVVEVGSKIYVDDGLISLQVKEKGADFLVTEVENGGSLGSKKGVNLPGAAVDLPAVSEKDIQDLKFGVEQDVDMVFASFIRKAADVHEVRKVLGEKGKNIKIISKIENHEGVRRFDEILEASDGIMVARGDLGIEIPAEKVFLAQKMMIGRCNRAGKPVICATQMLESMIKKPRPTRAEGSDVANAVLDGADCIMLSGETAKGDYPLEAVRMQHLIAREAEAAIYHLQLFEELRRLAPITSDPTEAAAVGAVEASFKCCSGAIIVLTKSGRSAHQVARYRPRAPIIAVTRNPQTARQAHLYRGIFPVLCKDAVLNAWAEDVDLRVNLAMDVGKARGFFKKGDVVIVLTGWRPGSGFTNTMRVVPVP

Chain of PK R510Q (P30613 whole entry R510Q): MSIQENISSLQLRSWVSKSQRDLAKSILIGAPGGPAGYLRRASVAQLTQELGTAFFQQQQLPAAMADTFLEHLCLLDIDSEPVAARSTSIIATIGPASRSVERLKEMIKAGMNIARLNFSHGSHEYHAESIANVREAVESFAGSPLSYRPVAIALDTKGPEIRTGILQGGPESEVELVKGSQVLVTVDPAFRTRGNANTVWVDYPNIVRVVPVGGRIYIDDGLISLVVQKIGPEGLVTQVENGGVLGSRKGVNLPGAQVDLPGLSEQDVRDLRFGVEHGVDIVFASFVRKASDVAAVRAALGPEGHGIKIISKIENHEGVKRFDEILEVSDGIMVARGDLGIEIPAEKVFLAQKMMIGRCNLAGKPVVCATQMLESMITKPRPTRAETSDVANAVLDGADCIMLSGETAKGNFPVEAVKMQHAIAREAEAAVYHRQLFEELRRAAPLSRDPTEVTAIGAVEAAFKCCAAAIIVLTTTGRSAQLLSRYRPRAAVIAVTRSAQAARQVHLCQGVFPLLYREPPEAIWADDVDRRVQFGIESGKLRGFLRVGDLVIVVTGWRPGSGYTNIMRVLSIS
Chain of PKR WT (P30613 whole entry): as the sequence (P30613 whole entry R510Q) above, with Q510R counted along it
Chain of PKM2 WT (P14618 whole entry): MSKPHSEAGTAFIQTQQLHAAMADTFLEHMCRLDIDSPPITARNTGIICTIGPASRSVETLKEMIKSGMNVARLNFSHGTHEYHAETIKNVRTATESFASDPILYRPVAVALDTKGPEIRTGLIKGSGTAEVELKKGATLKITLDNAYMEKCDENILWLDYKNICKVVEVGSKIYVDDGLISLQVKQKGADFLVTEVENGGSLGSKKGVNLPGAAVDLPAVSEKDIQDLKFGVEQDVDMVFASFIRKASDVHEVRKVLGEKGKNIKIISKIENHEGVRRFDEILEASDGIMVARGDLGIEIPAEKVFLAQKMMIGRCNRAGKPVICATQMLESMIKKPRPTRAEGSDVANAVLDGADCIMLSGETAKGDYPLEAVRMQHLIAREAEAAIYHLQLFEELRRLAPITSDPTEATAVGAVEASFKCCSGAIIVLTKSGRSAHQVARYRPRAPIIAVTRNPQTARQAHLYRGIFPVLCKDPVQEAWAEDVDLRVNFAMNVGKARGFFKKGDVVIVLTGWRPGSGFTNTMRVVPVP
Chain of PKR K410E (P30613 whole entry K410E): as the sequence (P30613 whole entry R510Q) above, with K410E, Q510R counted along it

| AC50 (PKR WT) [nM] | AC50 (PKR K410E) [nM] | AC50 (PK R510Q) [nM] | AC50 (PKM2 WT) [nM] | PKR WT AC50 (PKR WT) | PKR K410E AC50 (PKR K410E) | PK R510Q AC50 (PK R510Q) | SMILES | Cell based ATP assay AC50 (RBCs) | LPS and IL-1β production (PKM2) | production of IL-10 (PKM2) | AC50 (RBCs; Homo sapiens, Erythrocyte) [nM] |
| --- | --- | --- | --- | --- | --- | --- | --- | --- | --- | --- | --- |
| > 800 | > 800 | > 800 | > 800 | – | – | – | COc1cccc(Cn2ncn3c(c(C)c4nc(C)sc43)c2=O)c1 [Cpd 25] | No Fit | – | – | – |
| – | – | – | 301 to 800 | No Fit | No Fit | No Fit | Cn1cc(Cc2ccc3c(c2)c2cnn(Cc4cccc(C(N)=O)c4)c(=O)c2n3C)cn1 [Cpd 35] | No Fit | – | – | – |
| – | – | – | – | – | – | – | Cn1c2cc([S+](C)[O-])sc2c2cnn(Cc3cccc(N)c3)c(=O)c21 (stereo not drawn) [TEPP-46] | – | inhibited | boosting | – |
| > 800 | > 800 | > 800 | > 800 | – | – | – | Cc1nc2c3cnn(Cc4ccccc4)c(=O)c3n(C)c2s1 [Cpd 26] | No Fit | – | – | – |
| > 800 | > 800 | > 800 | 301 to 800 | – | – | – | Cn1c2ccc(S(C)(=O)=O)cc2c2cnn(Cc3cccc(C(N)=O)c3)c(=O)c21 [Cpd 52] | No Fit | – | – | – |
| > 800 | > 800 | > 800 | 301 to 800 | – | – | – | Cn1cc(Cc2ccc3c4cnn(Cc5cccc(C(N)=O)c5)c(=O)c4n(C)c3c2)cn1 [Cpd 62] | No Fit | – | – | – |
| > 800 | > 800 | > 800 | > 800 | – | – | – | Cn1ccc(Cn2ncc3c4cc(Cc5cscn5)ccc4n(C)c3c2=O)n1 [Cpd 31] | – | – | – | > 1000 |
| – | – | – | > 800 | No Fit | No Fit | No Fit | COc1cccc(Cn2ncc3c4c(Cc5ccccc5)cccc4n(C)c3c2=O)c1 [Cpd 61] | – | – | – | – |
| > 800 | > 800 | > 800 | 301 to 800 | – | – | – | COc1cccc(Cn2ncc3c4oc(C)nc4n(C)c3c2=O)c1 [Cpd 3] | – | – | – | – |
| > 800 | > 800 | > 800 | > 800 | – | – | – | Cn1c2ccc([S+](C)[O-])cc2c2cnn(Cc3cccc(C(N)=O)c3)c(=O)c21 (stereo not drawn) [Cpd 51] | No Fit | – | – | – |
